Laboratory results as given in patent US10730815B2, “Method of producing purified stilbene compounds” (MORINAGA & CO., LTD., priority 2014, dated 2020).

Assay: Precipitation of various stilbene compounds by γ-CD: concentration in supernatant (HPLC)
Format: physicochemical
Method: γ-CD solutions of six different concentrations (42.78, 85.56, 106.95, 128.33, 171.11, 213.89 mg/mL) were prepared.
The mixed solutions were stirred under light shielding conditions at 25° C. for 24 hours. Subsequently, they were subjected to centrifugation at 15,000 rpm at 25° C. for 5 minutes to collect the supernatants. These supernatants were further subjected to centrifugation using the same conditions to obtain another batch of supernatants.
Resveratrol (denoted by “Res” in the figure), rhapontigenin (denoted by “Rha” in the figure), and isorhapontigenin (denoted by “Isorha” in the figure) were used as the stilbene compounds to prepare respective solutions of the stilbene compounds. To each solution, γ-CD was added. Precipitation of these stilbene compounds by γ-CD and the relation between the concentration of γ-CD and the precipitation of the stilbene compounds were examined. Procedures for the preparation of the solutions and the measurement using HPLC were similar to those described in the above Example 1(3).

COc1ccc(/C=C/c2cc(O)cc(O)c2)cc1O [Rha, rhapontigenin]
Concentration of Rha in liquid (γ-CD 0 mg/mL final): 97000 ng/mL | Concentration of Rha in liquid (γ-CD 12.8 mg/mL final): 60000 ng/mL | Concentration of Rha in liquid (γ-CD 25.7 mg/mL final): 20000 ng/mL | Concentration of Rha in liquid (γ-CD 32.1 mg/mL final): 17000 ng/mL | Concentration of Rha in liquid (γ-CD 38.5 mg/mL final): 13000 ng/mL | Concentration of Rha in liquid (γ-CD 51.3 mg/mL final): ≤10000 ng/mL | Concentration of Rha in liquid (γ-CD 64.2 mg/mL final): ≤10000 ng/mL

Oc1ccc(/C=C/c2cc(O)cc(O)c2)cc1 [Res, Resveratrol]
Concentration of Res in liquid (γ-CD 0 mg/mL final): 28000 ng/mL | Concentration of Res in liquid (γ-CD 12.8 mg/mL final): 20000 ng/mL | Concentration of Res in liquid (γ-CD 25.7 mg/mL final): 12000 ng/mL | Concentration of Res in liquid (γ-CD 32.1 mg/mL final): 10000 ng/mL | Concentration of Res in liquid (γ-CD 38.5 mg/mL final): 8200 ng/mL | Concentration of Res in liquid (γ-CD 51.3 mg/mL final): 5800 ng/mL | Concentration of Res in liquid (γ-CD 64.2 mg/mL final): 3700 ng/mL

COc1cc(/C=C/c2cc(O)cc(O)c2)ccc1O [Isorha, isorhapontigenin]
Concentration of Isorha in liquid (γ-CD 0 mg/mL final): 190000 ng/mL | Concentration of Isorha in liquid (γ-CD 12.8 mg/mL final): 0 ng/mL | Concentration of Isorha in liquid (γ-CD 25.7 mg/mL final): 0 ng/mL | Concentration of Isorha in liquid (γ-CD 32.1 mg/mL final): 0 ng/mL | Concentration of Isorha in liquid (γ-CD 38.5 mg/mL final): 0 ng/mL | Concentration of Isorha in liquid (γ-CD 51.3 mg/mL final): 0 ng/mL | Concentration of Isorha in liquid (γ-CD 64.2 mg/mL final): 0 ng/mL
